Data reported in PubChem BioAssay (NCI).
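Where inhibition never reached the appropriate level, the endpoint shown equals the highest concentration tested. Otherwise, values were interpolated linearly from a five-concentration, 48-hour dose response in 96-well plates. At the GI50, growth is halved. TGI: total growth inhibition.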

How the values were obtained:
Assay in all cases: NCI tumour cell line growth inhibition, 48 h
[1] = tested on: DU-145 prostate
[2] = tested on: RXF 393 renal
[3] = tested on: BT-549 breast
[4] = tested on: UO-31 renal
[5] = tested on: UACC-257 melanoma
[6] = tested on: MDA-MB-231 breast
[7] = tested on: EKVX NSCLC
[8] = tested on: NCI-H460 lung
[9] = tested on: SR leukemia
[10] = tested on: A498 renal

| SMILES | GI50 [1] | TGI [1] | GI50 [2] | TGI [2] | GI50 [3] | TGI [3] | GI50 [4] | TGI [4] | GI50 [5] | TGI [5] | GI50 [6] | TGI [6] | GI50 [7] | TGI [7] | GI50 [8] | TGI [8] | GI50 [9] | TGI [9] | TGI [10] | GI50 [10] |
| --- | --- | --- | --- | --- | --- | --- | --- | --- | --- | --- | --- | --- | --- | --- | --- | --- | --- | --- | --- | --- |
| COc1cc(/C=C2\Oc3cc(OCCCN4CCCC4)ccc3C2=O)cc(OC)c1 | 3.68 µM | 12.8 µM | 3.02 µM | 12.3 µM | 8.76 µM | 21.7 µM | 4.76 µM | 18 µM | 4.54 µM | 17 µM | 3.28 µM | 11.1 µM | 9.6 µM | 21.9 µM | 3.43 µM | 12.3 µM | 1.82 µM | 5.04 µM | – | – |
| Cc1cc(=O)n2c3c(c4c(cc13)c(CO)cc(=O)n4C)OC2 | – | – | – | – | – | – | – | 40.2 µM | – | > 100 µM | – | – | – | > 100 µM | – | > 100 µM | – | – | 72.5 µM | – |
| CC(=O)[CH-]C(=O)c1ccccc1.CC(=O)[CH-]C(=O)c1ccccc1.CC1(C)OCC(C2OC3OC(C)(C)OC3C2[O-])O1.CC1(C)OCC(C2OC3OC(C)(C)OC3C2[O-])O1.[Ti+4] (centres undefined) | – | – | 12.5 µM | 25.3 µM | – | – | – | – | – | – | – | – | 14.1 µM | 30.1 µM | 11.3 µM | 28.4 µM | – | – | 30.2 µM | 15.7 µM |
| CCOC(=O)C1=C(C)N(Cc2ccccc2)C(=O)C1CC#N (centres undefined) | – | – | – | > 100 µM | – | – | – | > 100 µM | – | > 100 µM | – | – | – | > 100 µM | – | > 100 µM | – | > 100 µM | > 100 µM | – |
| NCCCCCCCCCCCn1c2c(c3ccccc3c1=O)C(=O)c1ccccc1-2 | 4.6 µM | 14.8 µM | 24.3 µM | 82.3 µM | 20.3 µM | 41.4 µM | 2.01 µM | 4.07 µM | 27.7 µM | 63.7 µM | 3.75 µM | 15.2 µM | 22.5 µM | 45.7 µM | 4.26 µM | 29.7 µM | – | – | 36.3 µM | 12.4 µM |
| CCN(CC)CCOc1ccc(/C=C2\C[C@H]3[C@H]4CC=C5C[C@@H](O)CC[C@]5(C)[C@H]4CC[C@]3(C)[C@H]2O)cc1OC | 3.86 µM | 10.2 µM | 13.4 µM | 39.3 µM | – | – | 7.23 µM | 18 µM | 8.42 µM | 18.1 µM | 6.94 µM | 14.2 µM | – | – | 13.1 µM | > 50 µM | – | – | – | – |
| C1COCCOCCOCCOCCOCCO1.[Cl][Sn]([Cl])([c]1ccccc1)[c]1ccccc1 | – | – | 2.21 µM | 4.06 µM | – | – | 14.1 µM | 27.2 µM | 2.08 µM | 4.63 µM | – | – | 6.77 µM | 19 µM | 15.1 µM | 30.5 µM | – | – | 11.9 µM | 3.12 µM |
| COc1ccc2c(c1)[n+]([O-])c(-c1ccc(Br)cc1)c(N)[n+]2[O-] | – | – | – | > 100 µM | – | – | – | > 100 µM | – | > 100 µM | – | – | – | > 100 µM | – | > 100 µM | – | > 100 µM | > 100 µM | – |
| CN(C)CCC=C1c2ccccc2C(C)(C)c2ccccc21 | 14.3 µM | 27.3 µM | – | – | – | – | 4.8 µM | 20.7 µM | 2.42 µM | 6.34 µM | 13.8 µM | 28.8 µM | 14.4 µM | 30 µM | 9.23 µM | 21.3 µM | – | – | 26 µM | 12.9 µM |
| COC(=O)NC(=Nc1ccc(Oc2ccccc2)cc1NC=O)NC(=O)OC | – | – | – | – | – | – | – | 69.6 µM | – | > 100 µM | – | – | – | > 100 µM | – | – | – | – | 1.08 µM | – |
| O=C(NNc1ccc(F)cc1)C1CCC(CNS(=O)(=O)c2ccc(Cl)c(Cl)c2)CC1 (centres undefined) | 5.52 µM | > 50 µM | – | – | 19.1 µM | > 50 µM | 16.8 µM | > 50 µM | 7.91 µM | 28.5 µM | 3.17 µM | 25.4 µM | 7.98 µM | > 50 µM | 3.18 µM | > 50 µM | 17 µM | > 50 µM | – | – |
| COC(=O)C1=Cc2cc(OC)c(OC)cc2[C@H](c2ccc(OC)c(OC)c2)C1C(=O)OC (some centres undefined) | – | – | – | > 100 µM | – | – | – | > 100 µM | – | > 100 µM | – | – | – | > 100 µM | – | > 100 µM | – | > 100 µM | > 100 µM | – |
| CCCCCCCCCCCCCCCC(=O)N[C@H](/C=C/[C@H](O)CCCCCCCCCCCCC)CO | > 100 µM | > 100 µM | > 100 µM | > 100 µM | > 100 µM | > 100 µM | > 100 µM | > 100 µM | > 100 µM | > 100 µM | > 100 µM | > 100 µM | > 100 µM | > 100 µM | > 100 µM | > 100 µM | – | – | > 100 µM | > 100 µM |
| Cc1cccc2nc3cccc(C(=O)NCCNCCNCCNC(=O)c4cccc5nc6cccc(C)c6nc45)c3nc12 | – | – | < 0.0149 µM | 0.228 µM | 1.73 µM | 6.25 µM | 0.0238 µM | – | 0.0557 µM | 1.76 µM | 0.161 µM | 3.93 µM | 0.291 µM | 16.3 µM | < 0.01 µM | 0.19 µM | < 0.01 µM | 1.22 µM | 0.363 µM | < 0.01 µM |
| Cc1cc(Cl)ccc1NC(=O)CCCC(=O)C1CCC/C1=N\NC(=O)CC#N (centres undefined) | – | – | – | – | – | – | – | > 100 µM | – | > 100 µM | – | – | – | > 100 µM | – | > 100 µM | – | – | > 100 µM | – |
| O=C(N=Nc1c(O)[nH]c2ccccc12)c1oc2ccccc2c1CN1CCN(c2ccccc2)CC1 | 1.22 µM | 3.27 µM | 1.01 µM | 3.17 µM | 5.81 µM | 21 µM | 1.01 µM | 2.94 µM | 4.03 µM | 28.3 µM | 1.45 µM | 4.58 µM | 1.91 µM | 10.3 µM | 1.17 µM | 2.79 µM | – | – | 8.87 µM | 1.56 µM |
| C[N+](C)(CCCCCC[N+](C)(C)CCCN1C(=O)c2cc3ccccc3cc2C1=O)CCCN1C(=O)c2cc3ccccc3cc2C1=O | > 37.5 µM | > 37.5 µM | > 37.5 µM | > 37.5 µM | > 37.5 µM | > 37.5 µM | > 37.5 µM | > 37.5 µM | > 37.5 µM | > 37.5 µM | > 37.5 µM | > 37.5 µM | > 37.5 µM | > 37.5 µM | > 37.5 µM | > 37.5 µM | – | – | > 37.5 µM | > 37.5 µM |
